The numbers were not newly measured in patent US12544394B2, “Compositions and methods for treatment of fibrosis” (priority 2017, dated 2026), which cites them from elsewhere.

One data set concerns liver fibrosis. The conditions noted are these: DLPC fed in chow (U.S. Pat. No. 5,284,835).
For data set [1] the following is noted: humans, oral route of administration.
The next data set concerns NASH. The conditions noted are these: patients with biopsy proven NASH, oral vitamin E supplementation.
The test system of the next data set is steatosis. The conditions noted are these: vitamin E 400-1000 IU/day for 4-10 months.

`CCCCCCCCCCCC(=O)OC[C@H](COP(=O)([O-])OCC[N+](C)(C)C)OC(=O)CCCCCCCCCCC` [DLPC, 1,2-dilauroyl-sn-glycero-3-phosphocholine]: in the data set with liver fibrosis, the liver fibrosis result is “slow liver fibrosis”. In addition, the clinical effect entry in data set [1] is “no significant clinical effect”.
With `Cc1c(C)c2c(c(C)c1O)CC[C@@](C)(CCC[C@H](C)CCC[C@H](C)CCCC(C)C)O2` [vitamin E, Alpha-tocopherol], the liver histology outcome in the data set with NASH was “improvement in hepatic steatosis and lobular inflammation but not portal inflammation or fibrosis”. In the data set on steatosis (decreased from 104.+−.61 IU/L, P<0.002), the “mean AST levels after treatment” value is 33.+−.11 IU/L. Further, the “mean ALT levels after treatment” value in the data set on steatosis (decreased from 175.+−.106 IU/L, P<0.01) is 40.+−.26 IU/L.
